Reference: ChEMBL document CHEMBL1201862, “PubChem BioAssay data set” (2004)
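Results reflect a 48-hour exposure of cells in 96-well plates to compound at five concentrations. Abbreviation: GI50, concentration required for 50% inhibition of growth.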 The source made the active and inactive calls. Rule as the data show it: active = GI50 up to about 1.1 µM and inactive = higher.

Columns and labels:
Assay in all cases: inhibition of tumour cell growth, NCI panel, 48 h
HT-29 = system: HT-29
HCT-116 = system: HCT-116
OVCAR-3 = system: OVCAR-3
NCI-H23 = system: NCI-H23
SR = system: SR
BT-549 = system: BT-549
DU-145 = system: DU-145
LOX IMVI = system: LOX IMVI
MDA-MB-231 = system: MDA-MB-231
U-251 = system: U-251
NCI-H522 = system: NCI-H522
SK-MEL-5 = system: SK-MEL-5
HCT-15 = system: HCT-15
TK-10 = system: TK-10
MCF7 = system: MCF7
M14 = system: M14
Hs-578T = system: Hs-578T
HOP-62 = system: HOP-62
SNB-19 = system: SNB-19
OVCAR-5 = system: OVCAR-5

Measured: GI50

NC(=O)C(NC=O)c1ccccc1 (stereo unspecified)
inactive: HT-29 > 100 µM | HCT-116 > 100 µM | OVCAR-3 > 100 µM | NCI-H23 > 100 µM | SR > 100 µM | BT-549 > 100 µM | DU-145 > 100 µM | LOX IMVI > 100 µM | MDA-MB-231 > 100 µM | U-251 > 100 µM | NCI-H522 > 100 µM | SK-MEL-5 > 100 µM | TK-10 > 100 µM | MCF7 > 100 µM | M14 > 100 µM | Hs-578T > 100 µM | HOP-62 > 100 µM | SNB-19 > 100 µM
> 100 µM: HCT-15

COC(=O)[C@@H]1[C@@H](c2cccc(Cl)c2)[C@H](C(=O)OC)C2(C[C@@]1(C)O)NCCS2 (stereo partly specified)
82.6 µM: HCT-15
inactive: HT-29 44.2 µM | HCT-116 42.5 µM | OVCAR-3 31.3 µM | NCI-H23 22.3 µM | OVCAR-5 > 100 µM | BT-549 > 100 µM | DU-145 32.7 µM | LOX IMVI 38.2 µM | MDA-MB-231 64.7 µM | U-251 > 100 µM | NCI-H522 24.2 µM | SK-MEL-5 44.9 µM | TK-10 > 100 µM | MCF7 56.1 µM | M14 39.1 µM | Hs-578T > 100 µM | HOP-62 92.3 µM | SNB-19 83.9 µM

O=C1c2ccccc2-c2nc(-c3cccs3)cc3c2c1nc1ccccc13
15.2 µM: HCT-15
inactive: HT-29 21.5 µM | HCT-116 14.3 µM | OVCAR-3 2.3 µM | NCI-H23 11.9 µM | SR 6.21 µM | OVCAR-5 36.7 µM | BT-549 22 µM | DU-145 14.1 µM | LOX IMVI 8.24 µM | MDA-MB-231 58.3 µM | U-251 18.6 µM | NCI-H522 12.7 µM | TK-10 > 100 µM | MCF7 13 µM | M14 3.27 µM | Hs-578T 21.3 µM | HOP-62 22 µM | SNB-19 35.9 µM

COc1cc(-c2cc(=O)c3c(OC)c(OC)c(OC)c(OC)c3o2)c(OC)c(OC)c1OC
30.3 µM: HCT-15
inactive: HT-29 31 µM | HCT-116 30.7 µM | SR 27.4 µM | OVCAR-5 > 100 µM | BT-549 17.6 µM | DU-145 43.4 µM | LOX IMVI 32.1 µM | MDA-MB-231 24.3 µM | U-251 48.1 µM | NCI-H522 20.7 µM | SK-MEL-5 36.1 µM | TK-10 61.7 µM | MCF7 47.2 µM | M14 51.5 µM | Hs-578T 19.8 µM | HOP-62 > 100 µM | SNB-19 98.6 µM

COc1cnnc2c(C)c(-c3ccccc3)nn12
> 100 µM: HCT-15
inactive: HT-29 > 100 µM | HCT-116 77.1 µM | OVCAR-3 59.2 µM | NCI-H23 > 100 µM | OVCAR-5 > 100 µM | BT-549 > 100 µM | DU-145 24.3 µM | LOX IMVI > 100 µM | MDA-MB-231 > 61.9 µM | U-251 > 70.3 µM | NCI-H522 > 93.5 µM | SK-MEL-5 > 75.5 µM | TK-10 > 100 µM | MCF7 > 100 µM | M14 > 68.4 µM | Hs-578T > 66.1 µM | HOP-62 > 69.3 µM | SNB-19 > 77.6 µM

O=C(n1c(=O)n(-c2ccc(Cl)cc2)c(=O)n1C(=O)C(Cl)(Cl)Cl)C(Cl)(Cl)Cl
> 10 µM: HCT-15
inactive: HT-29 > 100 µM | HCT-116 > 100 µM | OVCAR-3 > 100 µM | NCI-H23 > 100 µM | SR > 100 µM | OVCAR-5 > 10 µM | BT-549 66.5 µM | DU-145 > 100 µM | LOX IMVI > 100 µM | MDA-MB-231 7.67 µM | U-251 > 100 µM | NCI-H522 > 100 µM | SK-MEL-5 > 100 µM | TK-10 > 100 µM | MCF7 > 100 µM | Hs-578T > 100 µM | HOP-62 > 100 µM | SNB-19 > 100 µM

Cc1c(C)c(C)c(-n2c(=O)n(C)c(=O)n2-n2c(=O)n(C)c(=O)n2-c2c(C)c(C)c(C)c(C)c2C)c(C)c1C
> 100 µM: HCT-15
active: Hs-578T 0.0533 µM
inactive: HT-29 > 100 µM | HCT-116 > 100 µM | OVCAR-3 > 100 µM | SR 20.5 µM | OVCAR-5 > 100 µM | BT-549 > 100 µM | DU-145 > 100 µM | LOX IMVI 92.5 µM | MDA-MB-231 > 100 µM | U-251 > 100 µM | NCI-H522 44.2 µM | SK-MEL-5 > 100 µM | TK-10 > 100 µM | MCF7 > 100 µM | M14 > 100 µM | SNB-19 > 100 µM

O=C1N/N=C\Nc2ccc(cc2)S(=O)(=O)c2ccc(cc2)/N=C\NNC1=O
> 100 µM: HCT-15
inactive: HT-29 > 100 µM | HCT-116 > 100 µM | OVCAR-3 > 100 µM | NCI-H23 > 100 µM | OVCAR-5 > 100 µM | BT-549 72.8 µM | DU-145 > 100 µM | LOX IMVI > 100 µM | MDA-MB-231 > 100 µM | U-251 > 100 µM | NCI-H522 > 100 µM | SK-MEL-5 > 100 µM | TK-10 > 100 µM | MCF7 > 100 µM | M14 > 100 µM | Hs-578T > 100 µM | HOP-62 > 100 µM | SNB-19 > 100 µM

C/C(=N\NC(=S)NCCCCNC(=S)N/N=C(\C)c1ccccn1)c1ccccc1
active: HT-29 0.531 µM | HCT-116 0.331 µM | OVCAR-3 0.424 µM | SR 0.317 µM | BT-549 0.897 µM | DU-145 0.979 µM | LOX IMVI 0.845 µM | U-251 0.962 µM | SK-MEL-5 0.714 µM | TK-10 0.839 µM | MCF7 0.416 µM | HOP-62 0.745 µM
0.484 µM: HCT-15
inactive: NCI-H23 2.73 µM | OVCAR-5 1.98 µM | MDA-MB-231 5.09 µM | NCI-H522 1.15 µM | Hs-578T > 23.6 µM | SNB-19 > 24.8 µM

OCCOCn1nncc1Cn1ncc2c(O)ncnc21
> 100 µM: HCT-15
inactive: HT-29 40 µM | HCT-116 > 100 µM | OVCAR-3 28.6 µM | NCI-H23 > 100 µM | OVCAR-5 > 100 µM | BT-549 > 100 µM | DU-145 43.7 µM | LOX IMVI 74.3 µM | MDA-MB-231 > 100 µM | U-251 > 100 µM | NCI-H522 60.8 µM | SK-MEL-5 47.5 µM | TK-10 > 100 µM | MCF7 48.8 µM | M14 > 100 µM | Hs-578T > 100 µM | HOP-62 > 100 µM | SNB-19 > 100 µM

Cc1c2c(OCCN3CCCCC3)nn(C)c(=O)c2c(C)n1-c1ccccc1
inactive: HT-29 30.9 µM | HCT-116 38.6 µM | OVCAR-3 77.6 µM | NCI-H23 28.1 µM | OVCAR-5 > 100 µM | BT-549 44.4 µM | DU-145 52.7 µM | LOX IMVI 21.8 µM | MDA-MB-231 32.4 µM | U-251 49.2 µM | NCI-H522 26.7 µM | SK-MEL-5 16.7 µM | TK-10 67.5 µM | MCF7 25.5 µM | M14 18.5 µM | Hs-578T 54.1 µM | HOP-62 > 100 µM | SNB-19 77.1 µM
32 µM: HCT-15

Cc1nc2ccc(F)cc2c(Cl)c1CCCl
34.3 µM: HCT-15
inactive: HT-29 25 µM | HCT-116 26 µM | OVCAR-3 42.3 µM | NCI-H23 42.3 µM | SR 19.9 µM | BT-549 36.9 µM | DU-145 44.8 µM | LOX IMVI 25.2 µM | MDA-MB-231 27 µM | U-251 30.4 µM | NCI-H522 31.5 µM | SK-MEL-5 22 µM | TK-10 62.8 µM | MCF7 43.5 µM | Hs-578T 43.9 µM | HOP-62 84.9 µM | SNB-19 36.4 µM

O=C(Sc1n[nH]c(=O)[nH]c1=O)c1cccc2nc3ccccc3nc12
26.7 µM: HCT-15
inactive: HT-29 13.5 µM | HCT-116 > 100 µM | OVCAR-3 50 µM | NCI-H23 3.78 µM | SR > 100 µM | OVCAR-5 > 100 µM | BT-549 8.36 µM | DU-145 10.6 µM | LOX IMVI 18.5 µM | MDA-MB-231 > 100 µM | U-251 > 100 µM | SK-MEL-5 3.41 µM | TK-10 > 100 µM | MCF7 7.67 µM | M14 23.6 µM | Hs-578T 20 µM | SNB-19 > 100 µM

CC1(C)CCCC2(C)C3=C(CCC12)C(=O)OC3 (stereo unspecified)
inactive: HT-29 66.7 µM | HCT-116 > 100 µM | OVCAR-3 > 100 µM | NCI-H23 > 100 µM | SR 39.4 µM | OVCAR-5 > 100 µM | BT-549 80.5 µM | DU-145 > 100 µM | LOX IMVI > 100 µM | MDA-MB-231 > 100 µM | U-251 > 100 µM | NCI-H522 > 100 µM | SK-MEL-5 42.7 µM | TK-10 > 100 µM | MCF7 > 100 µM | M14 > 100 µM | Hs-578T 97.9 µM | HOP-62 > 100 µM
87.9 µM: HCT-15

CC1(C)CN(CC(=O)O)CC(Cc2ccc(OCC(=O)O)cc2)N(CC(=O)O)CC(C)(C)SS1 (stereo unspecified)
> 100 µM: HCT-15
inactive: HT-29 > 100 µM | HCT-116 > 100 µM | OVCAR-3 > 100 µM | NCI-H23 > 100 µM | OVCAR-5 > 100 µM | BT-549 > 100 µM | DU-145 > 100 µM | LOX IMVI > 100 µM | MDA-MB-231 > 100 µM | U-251 > 100 µM | NCI-H522 > 100 µM | SK-MEL-5 > 100 µM | TK-10 > 100 µM | MCF7 > 100 µM | M14 > 100 µM | Hs-578T > 100 µM | HOP-62 > 100 µM | SNB-19 > 100 µM
